According to paper PMC7163368 (British Journal of Clinical Pharmacology, 2020):
Where “and” joins values, the source holds several entries; their conditions need not be identical. Identical values can stand only once. Entries after “also recorded” stand apart in the source; their conditions may differ.

Tests used:
[1] = Plasma pharmacokinetics of parenterally administered dutogliptin; type: in vivo, human; conditions: for AUC / AUC(0-inf) / Tmax / k el / half-life / bioavailability: human, plasma
[2] = Safety and tolerability: adverse events, laboratory, ECG, physical examination; type: in vivo, human

## O=C(CN[C@@H]1CCNC1)N1CCC[C@H]1B(O)O [dutogliptin]
[1]; 30 mg i.v. (n = 5), day 0, mean (SD)
  Peak plasma concentration: 2352 (211) ng/mL
[1]; 30 mg s.c. (n = 5), day 0, mean (SD)
  Peak plasma concentration: 1232 (97) ng/mL
[1]; 60 mg s.c. (n = 10), day 0, mean (SD)
  Peak plasma concentration: 2757 (517) ng/mL
[1]; 90 mg s.c. (n = 10), day 0, mean (SD)
  Peak plasma concentration: 3641 (672) ng/mL
[1]; 120 mg s.c. (n = 10), day 0, mean (SD)
  Peak plasma concentration: 5093 ng/mL and 5093 (873) ng/mL
[1]; 120 mg s.c. compared to 500 mg orally administered dutogliptin
  Increase in maximal plasma levels: > 6 fold
[1]; 120 mg s.c. multiple dose, day 6 (n = 5), SD: 544
  Maximum plasma concentration: 6024 ng/mL
[1]; iv, 30 mg
  AUC: 4080 ng·h/mL
  AUC(0-inf): 4090 ng·h/mL
  Tmax: 0.08 h
  k el: 5.56e-05 s⁻¹
[1]; iv, 30 mg, T1/2, 30 mg i.v. (n = 5), day 0, mean (SD)
  half-life: 3.68 h
[1]; sc
  bioavailability: ~100%
[1]; sc, 30 mg
  AUC: 4050 ng·h/mL
  AUC(0-inf): 4060 ng·h/mL
  Tmax: 0.7 h
  bioavailability: 99%
  k el: 5.83e-05 s⁻¹
[1]; sc, 30 mg, T1/2, 30 mg s.c. (n = 5), day 0, mean (SD)
  half-life: 3.37 h
[1]; sc, 60 mg
  AUC: 9060 ng·h/mL
  AUC(0-inf): 9110 ng·h/mL
  Tmax: 0.85 h
  bioavailability: 109%
  k el: 5.56e-05 s⁻¹
[1]; sc, 60 mg, T1/2, 60 mg s.c. (n = 10), day 0, mean (SD)
  half-life: 3.58 h
[1]; sc, 90 mg
  AUC: 12200 ng·h/mL
  AUC(0-inf): 12200 ng·h/mL
  Tmax: 0.85 h
  bioavailability: 96%
  k el: 5.56e-05 s⁻¹
[1]; sc, 90 mg, T1/2, 90 mg s.c. (n = 10), day 0, mean (SD)
  half-life: 3.64 h
[1]; sc, 120 mg
  AUC: 17200 ng·h/mL
  AUC(0-inf): 17300 ng·h/mL
  Tmax: 0.9 h
  bioavailability: 95%
  k el: 5.83e-05 s⁻¹
[1]; sc, 120 mg, T1/2, 120 mg s.c. (n = 10), day 0, mean (SD)
  half-life: 3.32 h
[1]; sc, Half‐life, subcutaneous injection, pooled, SD: 0.46
  half-life: 3.49 h
[1]; multiple injections at daily intervals
  Accumulation of the study drug: did not lead to the accumulation of the study drug
[2]; 30 mg i.v.
  AEs with intravenous bolus injection: not associated with any AEs
[2]; P > .999
  Dose dependence of related systemic AEs: No dose‐dependent increase
  Dose dependence of subjects experiencing at least 1 local AE: no dose‐dependent increase
[2]; Total (n = 40)
  Erythema, related: subjects with at least 1 AE: 34 (85%)
  Fatigue, related: subjects with at least 1 AE: 2 (5%)
  Headache, related: subjects with at least 1 AE: 2 (5%)
  Hematoma, related: subjects with at least 1 AE: 4 (10%)
  Local AEs, related: subjects with at least 1 AE: 34 (85%)
  Other local AEs, related: subjects with at least 1 AE: 1 (3%)
  Other systemic AEs, related: subjects with at least 1 AE: 2 (5%)
  Pain with touching, related: subjects with at least 1 AE: 8 (20%)
  Pain without touching, related: subjects with at least 1 AE: 3 (8%)
  Swelling, related: subjects with at least 1 AE: 2 (5%)
  Systemic AEs, related: subjects with at least 1 AE: 6 (15%)
[2]; all cohorts
  Nonrelated serious AE (head injury, hospitalization): 1
  Nonrelated severe AEs: Two nonrelated severe AEs
  Related systemic AEs, total: 6
[2]; all cohorts, 40 healthy males
  Related serious (or severe) adverse events: No related serious adverse events occurred; also recorded: No study drug‐related severe or serious AEs were observed
[2]; i.v. single dose 30 mg (n = 5)
  All AEs, related: subjects with at least 1 AE: 0
  Erythema, related: subjects with at least 1 AE: 0
  Fatigue, related: subjects with at least 1 AE: 0
  Headache, related: subjects with at least 1 AE: 0
  Hematoma, related: subjects with at least 1 AE: 0
  Induration, related: subjects with at least 1 AE: 0
  Local AEs, related: subjects with at least 1 AE: 0
  Other local AEs (burning sensation at the injection site), related: subjects with at least 1 AE: 0
  Other systemic AEs (dizziness and nausea), related: subjects with at least 1 AE: 0
  Pain with touching, related: subjects with at least 1 AE: 0
  Pain without touching, related: subjects with at least 1 AE: 0
  Swelling, related: subjects with at least 1 AE: 0
  Systemic AEs, related: subjects with at least 1 AE: 0
[2]; s.c. multidose 60 mg (n = 5)
  All AEs, related: subjects with at least 1 AE: 5 (100%)
  Erythema, related: subjects with at least 1 AE: 5 (100%)
  Fatigue, related: subjects with at least 1 AE: 1 (20%)
  Headache, related: subjects with at least 1 AE: 0
  Hematoma, related: subjects with at least 1 AE: 1 (20%)
  Induration, related: subjects with at least 1 AE: 4 (80%)
  Local AEs, related: subjects with at least 1 AE: 5 (100%)
  Other local AEs, related: subjects with at least 1 AE: 0
  Other systemic AEs, related: subjects with at least 1 AE: 0
  Pain with touching, related: subjects with at least 1 AE: 3 (60%)
  Pain without touching, related: subjects with at least 1 AE: 0
